Results taken from US20140235518A1, “AQUEOUS LIQUIDS CONTAINING AN ORGANIC COMPOUND AND AN N-(2-HYDROXYALKYL) SUBSTITUTED N-ALKYLAMINE” (TAMINCO, priority 2011, published 2014).

Assays:
[1] = Interfacial tension by drop weight measurements; format: physicochemical; settings: 22° C.
Description: Drop weight measurements (i.e., the weight of a drop of one fluid as it is carefully released into another immiscible fluid) were used to evaluate the air/liquid and liquid/liquid interfacial tensions of 5% BDEA(aq) (butyldiethanolamine with C/OH ratio of 4), 5% HBHEEA(aq) (hydroxybutyl hydroxyethyl ethylamine with C/OH ratio of 4) and 2% HBHEBA(aq) (hydroxybutyl hydroxyethyl butylamine with C/OH ratio of 5) solutions at RT (22° C.). Note that a solution of 2% wt/wt of HBHEBA in water takes several minutes to form. About 1% wt/wt of HBHEBA dissolves in water fairly rapidly with stirring, while up to approximately 3% wt/wt can eventually be dissolved if stirring is continued for a longer period of time. The following relationship (oftentimes referred to as Tate's law) is used to relate drop weight to the interfacial tension between the drop fluid and the fluid being “dropped” into:
γ=mactual(1−ρfluid/ρdrop)g/(2πr)
Drop weights were taken 10 at a time and averaged. Three replicates of the drop average were taken to insure accuracy. […] The Table below contains drop weight data of some aqueous AAA solutions as dropped into air and into decane (ρ=0.73 g/ml):
The data for DI water dropped into air is used to standardize the pipette. The surface tension of water/air at 22° C. and 1 bar absolute P is 72 dynes/cm.
Using this value in the equation for DI water gives an orifice radius of 1.2 mm (0.12 cm). All of the measurements were carried out with the same pipette. Using the value of 1.2 mm as the radius of the pipette orifice allows for accurate calculation of the unknown interfacial tensions. Both BDEA and HBHEEA have the same MW and the same total C/OH ratio of 4, but both molecules display distinct interfacial tension properties. […] AAA's of identical total C/OH ratio and identical MW but with differing distribution of hydrophobic and hydrophilic regions display unique properties with respect to solubility, viscosity, volatility, impact on emulsion stability, and assistance to biostability.

[2] = Comparative emulsion stability (p-terphenyl oil / 20% aqueous AAA); format: physicochemical; settings: 10 g p-terphenyl oil + 10 g 20% wt/wt aqueous AAA, 10 s vortex
Source text: The emulsion prepared with aqueous N-butyldiethanolamine (BDEA, C/OH ratio=4) was compared to an otherwise identical emulsion prepared with 20% aqueous N-(2-hydroxybutyl)-N-(2-hydroxyethyl)-N-ethylamine (HBHEEA, C/OH ratio=4).

[3] = system: microbial population of spoiled coolant; experiment: Biostability comparison, soluble oil emulsion diluted in spoiled coolant (CFU by oxygen pressure); format: cell-based; settings: diluted 20 to 1 in spoiled coolant water
Description: (§1) The 100 ml test solutions were initially challenged with 10 ml of a lab maintained rancid soluble oil containing 50% tramp oil with an overall biological count of 8,800,000 CFU/ml. The degree of biological growth throughout the experiment was measured by the HMB-IV (Biotech International, Needville, Tex.) method for determination of the aerobic and facultative biological activity within a liquid metalworking fluid sample. This test method is based on the principle that most of the microorganisms in challenged metalworking fluids produce catalase while they are active. The addition of a known amount of a formulated HMB-IV oxidizing agent (hydrogen peroxide, buffer and chelating chemicals) to a standard volume of the sample fluid in a sealed test tube allows for an amount of oxygen proportional to the amount of active bacteria to be produced via the chemical reaction between active catalase enzyme and the hydrogen peroxide. A calibrated device is used to measure the amount of oxygen that is produced via the change in the pressure of the headspace within a test tube over a period of 15 minutes.
A challenge test comparison of the following soluble oil emulsion was carried out over several days.
The above concentrate formula was used with either 3 or 5 parts of one of the test amines. The soluble oil concentrate was diluted 20 to 1 in stagnant water made up from spoiled coolant (cultured from an original stock of rancid metalworking coolant used in a ferrous alloy cutting operation) which was in turn prepared by diluting 10% of a 60,000,000 CFU per ml of stock spoiled coolant with 90% tap water that had been allowed to air out for 24 hours. The challenge solution, which in this experiment is a control, was calculated to initially contain 6,000,000 CFU per ml microbial population. By the next day, the microbial content of the challenge solution had increased to 13,000,000 CFU per ml. By the end of the trial, the microbial content of the challenge solution had declined to 7,400,000 CFU. The concentration of microbes was determined by oxygen pressure development as described in Example 4.

[4] = system: microorganisms in challenged metalworking fluids; experiment: Challenge with amines as sole biostabilizing agent (HMB-IV catalase/oxygen pressure CFU); format: cell-based; settings: formula with 4.97% amine at 4% aqueous dilution; for CFU one hour after first challenge: CFU/ml
Description: (§2) The biostability of three fluids containing different amines was assessed in a challenge test format. The three amines used were DCHA (dicyclohexylamine), DBAE (dibutylaminoethanol) and HBHEBA (hydroxybutyl hydroxyethyl butylamine). The test solutions were approximately 100 ml in volume and maintained at RT. The following formula was used at 4% aqueous dilution for testing:
as §1, with “The addition of a known amount of a formulated HMB-IV oxidizing agent (hydrogen peroxide, buffer and chelating chemicals) to a standard volume of the sample fluid in a sealed test tube allows for an amount of oxygen proportional to the amount of active bacteria to be produced via the chemical reaction between active catalase enzyme and the hydrogen peroxide.” left out
(§3) The second challenge at 3 days was 20 ml of a rancid semi-synthetic coolant with a CFU/ml reading of 10,000,000. A volume of 20 ml was necessary to bring the volume back to the original 100 ml (each CFU/ml measurement removes 10 ml of coolant). The third challenge at 10 days was an additional 20 ml of the 10,000,000 CFU/ml rancid semi-synthetic coolant.

[5] = Condition of challenged test solutions (pH, putrification odor, appearance); settings: formula with 4.97% amine at 4% aqueous dilution
Description: as §2, §3

[6] = Dissolution of HBHEBA in water; format: physicochemical; settings: RT
Description: Drop weight measurements (i.e., the weight of a drop of one fluid as it is carefully released into another immiscible fluid) were used to evaluate the air/liquid and liquid/liquid interfacial tensions of 5% BDEA(aq) (butyldiethanolamine with C/OH ratio of 4), 5% HBHEEA(aq) (hydroxybutyl hydroxyethyl ethylamine with C/OH ratio of 4) and 2% HBHEBA(aq) (hydroxybutyl hydroxyethyl butylamine with C/OH ratio of 5) solutions at RT (22° C.). Note that a solution of 2% wt/wt of HBHEBA in water takes several minutes to form. About 1% wt/wt of HBHEBA dissolves in water fairly rapidly with stirring, while up to approximately 3% wt/wt can eventually be dissolved if stirring is continued for a longer period of time. The following relationship (oftentimes referred to as Tate's law) is used to relate drop weight to the interfacial tension between the drop fluid and the fluid being “dropped” into: […]

[7] = 5% (aq) solution dropped into Air
[8] = 5% (aq) solution dropped into Decane
[9] = AAA @ 3% in concentrate (1500 ppm diluted)
[10] = AAA @ 5% in concentrate (2500 ppm diluted)

Row | Compound | γ Drop to Fluid (air/liquid interfacial tension) [1, 7] [dynes/cm] | γ Drop to Fluid (liquid/liquid interfacial tension) [1, 8] [dynes/cm] | CFU per ml after 1 day [3, 9] [CFU per ml × 10^6] | CFU per ml after 4 days [3, 9] [CFU per ml × 10^6] | CFU per ml after 1 day [3, 10] [CFU per ml × 10^6] | CFU per ml after 4 days [3, 10] [CFU per ml × 10^6] | CFU @ 3 days (2nd challenge) [4] | CFU @ 7 days (4 days after 2nd challenge) [4] | CFU @ 10 days (3rd challenge) [4] | CFU @ 14 days (4 days after 3rd challenge) [4] | CFU @ 25 days (7 days after fresh dilution) [4] | CFU @ 90 days (60 day idle period simulation) [4] | CFU one hour after first challenge [4] | pH of test solution @ 25 days [5] | pH of test solution @ 90 days [5] | pH of test solution after first challenge [5] | further results
1 | CCCCN(CCO)CCO [BDEA, N-butyldiethanolamine] | 41 | 13 | 11 | 9.0 | 3.5 | 2.1 | – | – | – | – | – | – | – | – | – | – | Time to complete phase separation of emulsion [2]: ≤ 30 min; Time to significant oil coalescence of emulsion [2]: ≤ 15 min
2 | CCCCN(CCO)CCCC [DBAE, N,N-dibutylaminoethanol] | – | – | – | – | – | – | 310,000 CFU | 2,100,000 CFU | 4,000,000 CFU | 2,500,000 CFU | 2,900,000 CFU | 8,100,000 CFU | 740,000 CFU | 8.2 | 7.7 | 9.4 | –
3 | C1CCC(NC2CCCCC2)CC1 [DCHA, dicyclohexylamine] | – | – | – | – | – | – | 410,000 CFU | 3,000,000 CFU | 3,900,000 CFU | 3,900,000 CFU | 4,000,000 CFU | 33,000,000 CFU | 630,000 CFU | 8.2 | 7.7 | 9.1 | –
4 | CCCCN(CCO)CC(O)CC (stereo not shown) [HBHEBA, N-(2-hydroxybutyl)-N-(2-hydroxyethyl)-N-butylamine] | – | – | 7.3 | 5.0 | 3.0 | 1.2 | 140,000 CFU | 3,300,000 CFU | 4,500,000 CFU | 2,900,000 CFU | 1,700,000 CFU | 7,700,000 CFU | 610,000 CFU | 8.2 | 7.6 | 9.1 | γ Drop to Fluid (air/liquid interfacial tension) ([1]; 2% (aq) solution dropped into Air): 34 dynes/cm; γ Drop to Fluid (liquid/liquid interfacial tension) ([1]; 2% (aq) solution dropped into Decane): 8 dynes/cm; Amount that can eventually be dissolved in water ([6]; stirring continued for a longer period of time): approximately 3 % wt/wt; Amount dissolving in water fairly rapidly ([6]; with stirring): About 1 % wt/wt
5 | CCC(O)CN(CC)CCO (stereo not shown) [HBHEEA, N-(2-hydroxybutyl)-N-(2-hydroxyethyl)-ethylamine] | 37 | 17 | – | – | – | – | – | – | – | – | – | – | – | – | – | – | Emulsion stability (visual) [2]: remained completely opaque with no visible signs of coalescence for several hours
